Measured values reported in ChEMBL document CHEMBL4393715, “Design, synthesis and biological evaluation of the thioether-containing lenalidomide analogs with anti-proliferative activities” (Eur J Med Chem, 2019).
Each block holds one molecule with its values, some of them ahead of it.

Legend:
[1] = Antiproliferative activity against human Mino cells measured after 72 hrs by CellTiter96 Aqueous non-radioactive cell proliferation assay; format: functional, cell-based
[2] = MRT (infinity) in BALB/c mouse at 5 mg/kg, iv and measured up to 24 hrs by LC-MS/MS analysis; format: ADME, organism-based; conditions: in vivo
[3] = AUC (infinity) in BALB/c mouse at 5 mg/kg, iv and measured up to 24 hrs by LC-MS/MS analysis; format: ADME, organism-based; design: dose 5 mg/kg, route intravenous, time infinity; conditions: in vivo
[4] = Clearance in BALB/c mouse at 5 mg/kg, iv and measured up to 24 hrs by LC-MS/MS analysis; format: ADME, organism-based; conditions: in vivo
[5] = Volume of distribution at steady state in BALB/c mouse at 5 mg/kg, iv and measured up to 24 hrs by LC-MS/MS analysis; format: ADME, organism-based; conditions: in vivo, read-out: Vdss
[6] = Half-life in BALB/c mouse at 5 mg/kg, iv and measured up to 24 hrs by LC-MS/MS analysis; format: ADME, organism-based; conditions: in vivo
[7] = AUC (infinity) in BALB/c mouse at 20 mg/kg, po and measured up to 24 hrs by LC-MS/MS analysis; format: ADME, organism-based; design: dose 20 mg/kg, route oral, time infinity; conditions: in vivo
[8] = Terminal elimination half life in BALB/c mouse at 20 mg/kg, po and measured up to 24 hrs by LC-MS/MS analysis; format: ADME, organism-based; conditions: in vivo, read-out: LambdaZ (converted)
[9] = Tmax in BALB/c mouse at 20 mg/kg, po and measured up to 24 hrs by LC-MS/MS analysis; format: ADME, organism-based; conditions: in vivo
[10] = Cmax in BALB/c mouse at 20 mg/kg, po and measured up to 24 hrs by LC-MS/MS analysis; format: ADME, organism-based; design: dose 20 mg/kg, route oral; conditions: in vivo
[11] = Oral bioavailability in BALB/c mouse at 20 mg/kg and measured up to 24 hrs by LC-MS/MS analysis; format: ADME, organism-based; conditions: in vivo
MV4-11 = assay: Antiproliferative activity against human MV411 cells measured after 168 hrs by CellTiter96 Aqueous non-radioactive cell proliferation assay; format: functional, cell-based; conditions: MV4-11, 168 h
MM1.S = assay: Antiproliferative activity against human MM1S cells measured after 168 hrs by CellTiter96 Aqueous non-radioactive cell proliferation assay; format: functional, cell-based
Z-138 = assay: Antiproliferative activity against human Z138 cells measured after 72 hrs by CellTiter96 Aqueous non-radioactive cell proliferation assay; format: functional, cell-based; conditions: Z-138, 72 h
JeKo-1 = assay: Antiproliferative activity against human JeKo1 cells measured after 72 hrs by CellTiter96 Aqueous non-radioactive cell proliferation assay; format: functional, cell-based; conditions: JeKo-1, 72 h
Raji = assay: Antiproliferative activity against human Raji cells measured after 168 hrs by CellTiter96 Aqueous non-radioactive cell proliferation assay; format: functional, cell-based
PBMC [12] = assay: Cytotoxicity against human PBMC cells by CellTiter96 Aqueous non-radioactive cell proliferation assay; format: cell-based
U-266 = assay: Antiproliferative activity against human U266 cells measured after 72 hrs by CellTiter96 Aqueous non-radioactive cell proliferation assay; format: functional, cell-based; conditions: U-266, 72 h
RPMI-8226 [13] = assay: Antiproliferative activity against human RPMI8226 cells measured after 72 hrs by CellTiter96 Aqueous non-radioactive cell proliferation assay; format: functional, cell-based; conditions: RPMI-8226, 72 h
THP-1 = assay: Antiproliferative activity against human THP1 cells measured after 168 hrs by CellTiter96 Aqueous non-radioactive cell proliferation assay; format: functional, cell-based; conditions: THP-1, 168 h
Kasumi 1 = assay: Antiproliferative activity against human Kasumi-1 cells measured after 168 hrs by CellTiter96 Aqueous non-radioactive cell proliferation assay; format: functional, cell-based; conditions: Kasumi 1, 168 h
[14] = Toxicity in CB-17 SCID mouse xenografted with human RPMI8226 cells assessed as body weight at 60 mg/kg/day, po and measured after day 18 (reference value: 20.1 to 20.4 g); format: organism-based; conditions: in vivo
RPMI-8226 [15] = assay: Antitumour activity against human RPMI8226 cells xenografted in CB-17 SCID mouse assessed as tumour volume at 60 mg/kg/day, po measured after day 18 (reference value: 153 to 154 mm3); format: functional
RPMI-8226 [16] = assay: Antitumour activity against human RPMI8226 cells xenografted in CB-17 SCID mouse assessed as relative tumour volume at 60 mg/kg/day, po measured twice a week for 21 days; format: functional
RPMI-8226 [17] = assay: Antitumour activity against human RPMI8226 cells xenografted in CB-17 SCID mouse assessed as inhibition of tumour growth at 60 mg/kg/day, po measured twice a week for 21 days relative to control; format: functional; design: scale not given: the % may be the effect or the level left
[18] = Toxicity in CB-17 SCID mouse xenografted with human RPMI8226 cells assessed as mortality at 60 mg/kg/day, po and measured after day 18; format: organism-based; conditions: in vivo
[19] = Toxicity in CB-17 SCID mouse xenografted with human RPMI8226 cells assessed as increase in body weight at 60 mg/kg/day, po and measured after day 18 (reference value: 13.4%); format: organism-based; conditions: in vivo
PBMC [20] = assay: Antiinflammatory activity in human PBMC cells assessed as reduction in LPS-induced TNF-alpha production preincubated for 1 hr followed by LPS addition and measured after 18 to 20 hrs by ELISA; format: functional, cell-based

MRT inf [2]: 27 min | AUC(0-inf) [3]: 424 ng·h/mL | clearance [4]: 197 mL/min/kg | Vd [5]: 5.31 L/kg | half-life [6]: 42 min | AUC(0-inf) [7]: 34.1 ng·h/mL | half-life [8]: 84.6 min | Tmax [9]: 30 min | Cmax [10]: 16.7 ng/mL | bioavailability [11]: 2.9%
SMILES: O=C1CCC(N2Cc3c(SCc4ccc(C(=O)N5CCCCC5)cc4)cccc3C2=O)C(=O)N1 (stereo not drawn)
IC50 [1]: 0.5 nM

IC50 (MV4-11): > 20000 nM | IC50 (MM1.S): 0.6 nM
SMILES: O=C1CCC(N2Cc3c(SCc4ccccc4F)cccc3C2=O)C(=O)N1 (stereo not drawn)
IC50 [1]: 2.9 nM

IC50 (MV4-11): > 20000 nM | IC50 (MM1.S): 1.3 nM | IC50 (Raji): > 20000 nM | IC50 (RPMI-8226 [13]): 200 nM | IC50 (THP-1): > 20000 nM
SMILES: N#Cc1ccc(CSc2cccc3c2CN(C2CCC(=O)NC2=O)C3=O)cc1 (stereo not drawn)
IC50 [1]: 3.7 nM | IC50 (Z-138): > 20000 nM | IC50 (JeKo-1): > 20000 nM | IC50 (PBMC [12]): > 20000 nM | IC50 (U-266): > 20000 nM | IC50 (Kasumi 1): > 20000 nM

IC50 (MV4-11): > 20000 nM | IC50 (MM1.S): 50 nM | IC50 (Raji): > 20000 nM | IC50 (RPMI-8226 [13]): > 20000 nM | IC50 (THP-1): > 20000 nM
SMILES: Nc1cccc2c1CN(C1CCC(=O)NC1=O)C2=O (stereo not drawn) [LENALIDOMIDE]
IC50 [1]: > 20000 nM | IC50 (Z-138): > 20000 nM | IC50 (JeKo-1): > 20000 nM | IC50 (PBMC [12]): > 20000 nM | IC50 (U-266): > 20000 nM | IC50 (Kasumi 1): > 20000 nM

IC50 (MV4-11): > 20000 nM | IC50 (MM1.S): 1.4 nM
SMILES: N#Cc1cccc(CSc2cccc3c2CN(C2CCC(=O)NC2=O)C3=O)c1 (stereo not drawn)
IC50 [1]: 8 nM

IC50 (MV4-11): > 20000 nM | IC50 (MM1.S): 2.1 nM
SMILES: CSc1cccc2c1CN(C1CCC(=O)NC1=O)C2=O (stereo not drawn)
IC50 [1]: 930 nM

IC50 (MV4-11): > 20000 nM | IC50 (MM1.S): 1.1 nM
SMILES: O=C1CCC(N2Cc3c(SCc4ccccc4Cl)cccc3C2=O)C(=O)N1 (stereo not drawn)
IC50 [1]: 11.6 nM

Further lines, the molecule ahead of its results:

SMILES: O=C1CCC(N2Cc3c(SCc4ccc(C(=O)N5CCOCC5)cc4)cccc3C2=O)C(=O)N1 (stereo not drawn)
IC50 [1]: 1.9 nM

SMILES: O=C1CCC(N2Cc3c(cccc3[S+]([O-])Cc3ccc(CN4CCOCC4)cc3)C2=O)C(=O)N1 (stereo not drawn)
IC50 [1]: 100 nM

SMILES: O=C1CCC(N2Cc3c(SCc4ccc(Cl)cc4)cccc3C2=O)C(=O)N1 (stereo not drawn)
MRT inf [2]: 56.4 min | IC50 (MV4-11): > 20000 nM | IC50 [1]: 2.3 nM | IC50 (MM1.S): 1.1 nM | IC50 (Z-138): > 20000 nM | IC50 (JeKo-1): > 20000 nM | IC50 (Raji): > 20000 nM | IC50 (PBMC [12]): > 20000 nM | IC50 (U-266): > 20000 nM | IC50 (RPMI-8226 [13]): 5.5 nM | IC50 (THP-1): > 20000 nM | IC50 (Kasumi 1): > 20000 nM | AUC(0-inf) [3]: 428 ng·h/mL | clearance [4]: 196 mL/min/kg | Vd [5]: 11.1 L/kg | half-life [6]: 113 min | AUC(0-inf) [7]: 755 ng·h/mL | half-life [8]: 107 min | Tmax [9]: 49.8 min | Cmax [10]: 283 ng/mL | bioavailability [11]: 39.2% | Activity [14]: 22.4 g | Activity (RPMI-8226 [15]): 1022 mm3 | fold change (FC) (RPMI-8226 [16]): 6.62 | Activity (RPMI-8226 [17]): 52.31% | Activity [18]: Non-Toxic | Activity [19]: 9.8%

SMILES: COC(=O)c1ccc(CSc2cccc3c2CN(C2CCC(=O)NC2=O)C3=O)cc1 (stereo not drawn)
IC50 [1]: 7.4 nM

SMILES: Nc1ccc2c(c1)CN(C1CCC(=O)NC1=O)C2=O (stereo not drawn)
IC50 (PBMC [20]): > 100000 nM

SMILES: O=C1CCC(N2Cc3c(SCc4ccc(F)cc4)cccc3C2=O)C(=O)N1 (stereo not drawn)
IC50 (MV4-11): > 20000 nM | IC50 [1]: 2.6 nM | IC50 (MM1.S): 0.9 nM | IC50 (Z-138): > 20000 nM | IC50 (JeKo-1): > 20000 nM | IC50 (Raji): > 20000 nM | IC50 (PBMC [12]): > 20000 nM | IC50 (U-266): 2.6 nM | IC50 (RPMI-8226 [13]): 40 nM | IC50 (THP-1): > 20000 nM | IC50 (Kasumi 1): > 20000 nM

SMILES: CN1CCN(C(=O)c2ccc(CSc3cccc4c3CN(C3CCC(=O)NC3=O)C4=O)cc2)CC1 (stereo not drawn)
IC50 [1]: 3.4 nM

SMILES: CCNC(=O)c1ccc(CSc2cccc3c2CN(C2CCC(=O)NC2=O)C3=O)cc1 (stereo not drawn)
IC50 [1]: 4.2 nM

SMILES: O=C1CCC(N2Cc3c(SCc4cccc(F)c4)cccc3C2=O)C(=O)N1 (stereo not drawn)
IC50 (MV4-11): > 20000 nM | IC50 [1]: 4.3 nM | IC50 (MM1.S): 0.9 nM

SMILES: CC1CN(C(=O)c2ccc(CSc3cccc4c3CN(C3CCC(=O)NC3=O)C4=O)cc2)CC(C)O1 (stereo not drawn)
IC50 [1]: 6.5 nM
